Values of other authors in EP3251687A1, “BIOACTIVE PEPTIDES FOR BLOOD GLUCOSE CONTROL” (Centrum Innowacji Edoradca Sp. z o.o. Spolka Komandytowa, priority 2016, dated 2017).

Tested on: carboxypeptidases A, B

enterostatin
resistance to digestion by carboxypeptidases A, B: resistant to digestion by carboxypeptidases A, B
